System: pro-inflammatory cytokines such as IL-6, IL-1 beta, TNF-alpha and MIP-1 beta
Experiment: Effect of unconjugated components on pro-inflammatory cytokines
Assay type: cell-based
Details: even at high doses

## N[C@H]1C(O)O[C@H](CO)[C@@H](O)[C@@H]1O (stereo partly shown) [glucosamine]
  effect on pro-inflammatory cytokines such as IL-6, IL-1 beta, TNF-alpha and MIP-1 beta: no effect
